Experimental data published in patent US6013625A, “Method and composition for treating thrombosis” (La Jolla Cancer Research Foundation, priority 1994, dated 2000).
“And” between values parts separate entries of the source, which are not always exact repeats. Identical values can stand only once.

What was measured:
[1] = tested on: platelets stimulated with ADP; assay: ADP-stimulated platelet aggregation (aggregometer, platelet-rich plasma); conditions: read-out: ADP-Stimulated Aggregation (IC50), ADP 10 μm, 37° C.
Protocol: Briefly, the change in light transmission was measured through a stirred suspension of platelets in an aggregometer (Model 400 VS, Chrono-Log, Havertown, Pa., USA). […] In studies using thrombin, the PRP was gel-filtered on Sepharose 2B in divalent ion-free Tyrode's solution containing 2% BSA. For all studies, the reference standard was platelet-poor plasma, which was obtained by centrifuging PRP at 1000×g for 5 min.
All aggregation studies were performed at 37° C. with a constantly stirred suspension of 3×10^8 platelets/ml. (Platelet count was determined with the aid of a hemacytometer.) Peptides and stimulants were added to these suspensions in 1% dilutions. The PRP and gel-filtered platelets were used within three hours from the time of blood collection.
Peptide anti-aggregation potencies were determined from dose-responsive curves for the inhibition of the maximum aggregation responses stimulated by physiologic doses of ADP (10 μm) and thrombin (2 U/ml).

[2] = target: T1, fibronectin receptor (Fn-R) (Homo sapiens, UniProt P05556+P08648); assay: Competitive ELISA for fibronectin receptor binding; conditions: purified receptor from human placenta, read-out: FnR Binding (IC50)
T1 construct: purified from (100 mM) octyl glucoside-extracted human placenta; from tissue; host or cells: human placenta
T1 sequence (P08648 42-894 limits assumed): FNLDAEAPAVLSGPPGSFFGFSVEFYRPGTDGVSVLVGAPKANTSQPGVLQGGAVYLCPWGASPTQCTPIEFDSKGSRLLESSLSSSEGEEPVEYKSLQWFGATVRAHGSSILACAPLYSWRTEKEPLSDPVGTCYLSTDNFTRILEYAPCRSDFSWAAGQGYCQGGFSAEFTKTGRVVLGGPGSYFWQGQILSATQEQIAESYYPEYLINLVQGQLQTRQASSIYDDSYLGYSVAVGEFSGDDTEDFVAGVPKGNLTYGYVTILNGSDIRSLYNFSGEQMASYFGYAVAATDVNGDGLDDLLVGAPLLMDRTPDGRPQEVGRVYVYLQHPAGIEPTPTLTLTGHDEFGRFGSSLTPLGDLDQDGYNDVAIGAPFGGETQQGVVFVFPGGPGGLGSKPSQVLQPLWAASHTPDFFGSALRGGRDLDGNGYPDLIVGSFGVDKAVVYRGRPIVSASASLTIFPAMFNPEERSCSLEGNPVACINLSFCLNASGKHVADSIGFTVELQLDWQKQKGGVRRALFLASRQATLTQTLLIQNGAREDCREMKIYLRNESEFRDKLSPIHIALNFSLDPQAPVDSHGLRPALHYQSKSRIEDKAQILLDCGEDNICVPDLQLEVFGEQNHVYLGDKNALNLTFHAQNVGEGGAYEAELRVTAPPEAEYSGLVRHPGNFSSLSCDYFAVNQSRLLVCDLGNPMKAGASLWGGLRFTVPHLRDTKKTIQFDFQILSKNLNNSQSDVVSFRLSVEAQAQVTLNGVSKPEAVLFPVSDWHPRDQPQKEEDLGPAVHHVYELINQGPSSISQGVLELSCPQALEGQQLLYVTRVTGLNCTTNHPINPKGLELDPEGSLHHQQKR
T1 sequence (P08648 895-1049 partner limits assumed): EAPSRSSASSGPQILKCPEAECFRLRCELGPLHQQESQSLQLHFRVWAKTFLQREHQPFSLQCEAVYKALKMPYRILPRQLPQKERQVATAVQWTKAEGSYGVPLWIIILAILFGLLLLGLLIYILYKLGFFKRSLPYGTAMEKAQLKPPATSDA
T1 sequence (P05556 21-798): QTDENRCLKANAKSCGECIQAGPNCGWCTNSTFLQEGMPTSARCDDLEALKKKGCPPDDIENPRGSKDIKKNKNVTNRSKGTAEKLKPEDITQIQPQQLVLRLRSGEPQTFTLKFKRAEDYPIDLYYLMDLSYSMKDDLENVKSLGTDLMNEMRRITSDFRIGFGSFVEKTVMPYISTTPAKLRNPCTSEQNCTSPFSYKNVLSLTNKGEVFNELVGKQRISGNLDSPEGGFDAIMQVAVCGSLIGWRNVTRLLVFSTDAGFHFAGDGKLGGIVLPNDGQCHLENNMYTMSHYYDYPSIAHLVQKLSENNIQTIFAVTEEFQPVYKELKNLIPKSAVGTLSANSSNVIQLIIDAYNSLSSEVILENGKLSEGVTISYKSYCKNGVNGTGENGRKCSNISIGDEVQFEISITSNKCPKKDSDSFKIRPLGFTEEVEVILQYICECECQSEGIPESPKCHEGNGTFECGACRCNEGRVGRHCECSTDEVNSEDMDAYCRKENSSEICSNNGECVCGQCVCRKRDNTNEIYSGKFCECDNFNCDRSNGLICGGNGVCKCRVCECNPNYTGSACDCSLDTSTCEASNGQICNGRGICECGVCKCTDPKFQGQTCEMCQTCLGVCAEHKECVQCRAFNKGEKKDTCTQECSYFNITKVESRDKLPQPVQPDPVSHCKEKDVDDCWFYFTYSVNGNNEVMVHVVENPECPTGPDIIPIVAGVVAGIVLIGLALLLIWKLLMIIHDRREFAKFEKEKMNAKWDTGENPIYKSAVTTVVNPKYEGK
Protocol: Peptide binding to purified Fn-R was determined by using a competitive enzyme-linked immunosorbent assay (ELISA) in which fibronectin is immobilized and the binding of solubilized Fn-R is detected with labeled anti-FnR antibodies in the presence of various concentrations of peptide analogue.
Microtiter plates were coated with 110 μl of human fibronectin (at 2 μg/ml) in TBS. The plates were washed three times with TBS that contained 0.05% Tween 20. If necessary, peptides were added after this washing in 10 microliter aliquots. The fibronectin receptor was then added in 2-fold serial dilutions with TBS containing 20 mM octyl glucoside and 2 mM MnCl2. The plates were incubated for three hours at room temperature, washed with 200 μl of the above TBS-Tween buffer. 100 μl of affinity-purified rabbit anti-human fibronectin receptor antibody was added to the wells and the plates were incubated for an additional two hours, washed twice with TBS-Tween and then distilled water. Affinity-purified goat anti-rabbit IgG conjugated to horseradish peroxidase (100 μl) was then added to each well. Bonding reactions were incubated for 16 hours at room temperature. The following day, the plates were washed twice with TBS-Tween and then distilled water. […]

[3] = target: T2, vitronectin receptor (Vn-R) (Homo sapiens, UniProt P05106+P06756); assay: Liposome attachment assay for vitronectin receptor; conditions: purified receptor from human placenta, read-out: VnR Binding (IC50)
T2 construct: from tissue; host or cells: human placenta
T2 sequence (P06756 31-889 limits assumed): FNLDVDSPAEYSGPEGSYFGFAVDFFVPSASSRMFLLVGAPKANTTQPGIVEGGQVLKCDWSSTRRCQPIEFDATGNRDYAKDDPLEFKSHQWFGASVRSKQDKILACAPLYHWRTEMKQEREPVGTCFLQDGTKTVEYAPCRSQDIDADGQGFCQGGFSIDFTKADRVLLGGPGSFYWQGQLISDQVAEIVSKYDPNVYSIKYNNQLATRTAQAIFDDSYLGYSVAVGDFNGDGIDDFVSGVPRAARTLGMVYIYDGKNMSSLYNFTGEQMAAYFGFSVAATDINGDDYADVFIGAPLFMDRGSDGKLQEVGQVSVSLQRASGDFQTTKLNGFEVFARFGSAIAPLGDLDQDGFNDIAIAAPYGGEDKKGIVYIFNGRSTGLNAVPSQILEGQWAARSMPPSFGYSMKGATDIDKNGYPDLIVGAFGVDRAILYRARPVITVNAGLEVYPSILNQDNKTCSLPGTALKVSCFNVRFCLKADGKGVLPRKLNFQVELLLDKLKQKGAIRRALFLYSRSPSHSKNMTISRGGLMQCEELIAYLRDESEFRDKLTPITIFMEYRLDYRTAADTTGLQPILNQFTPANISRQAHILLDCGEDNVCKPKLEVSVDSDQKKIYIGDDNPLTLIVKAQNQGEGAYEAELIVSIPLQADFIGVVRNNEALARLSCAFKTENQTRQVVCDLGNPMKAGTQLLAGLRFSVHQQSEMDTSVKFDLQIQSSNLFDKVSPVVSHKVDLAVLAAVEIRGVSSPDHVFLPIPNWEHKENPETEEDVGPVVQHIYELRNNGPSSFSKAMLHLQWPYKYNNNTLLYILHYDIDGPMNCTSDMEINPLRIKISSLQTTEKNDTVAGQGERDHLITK
T2 sequence (P06756 891-1048 partner limits assumed): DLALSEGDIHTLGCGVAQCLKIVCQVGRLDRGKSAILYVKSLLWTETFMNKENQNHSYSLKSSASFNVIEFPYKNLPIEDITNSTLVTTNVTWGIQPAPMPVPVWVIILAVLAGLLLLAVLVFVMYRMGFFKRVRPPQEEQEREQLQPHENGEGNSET
T2 sequence (P05106 27-788): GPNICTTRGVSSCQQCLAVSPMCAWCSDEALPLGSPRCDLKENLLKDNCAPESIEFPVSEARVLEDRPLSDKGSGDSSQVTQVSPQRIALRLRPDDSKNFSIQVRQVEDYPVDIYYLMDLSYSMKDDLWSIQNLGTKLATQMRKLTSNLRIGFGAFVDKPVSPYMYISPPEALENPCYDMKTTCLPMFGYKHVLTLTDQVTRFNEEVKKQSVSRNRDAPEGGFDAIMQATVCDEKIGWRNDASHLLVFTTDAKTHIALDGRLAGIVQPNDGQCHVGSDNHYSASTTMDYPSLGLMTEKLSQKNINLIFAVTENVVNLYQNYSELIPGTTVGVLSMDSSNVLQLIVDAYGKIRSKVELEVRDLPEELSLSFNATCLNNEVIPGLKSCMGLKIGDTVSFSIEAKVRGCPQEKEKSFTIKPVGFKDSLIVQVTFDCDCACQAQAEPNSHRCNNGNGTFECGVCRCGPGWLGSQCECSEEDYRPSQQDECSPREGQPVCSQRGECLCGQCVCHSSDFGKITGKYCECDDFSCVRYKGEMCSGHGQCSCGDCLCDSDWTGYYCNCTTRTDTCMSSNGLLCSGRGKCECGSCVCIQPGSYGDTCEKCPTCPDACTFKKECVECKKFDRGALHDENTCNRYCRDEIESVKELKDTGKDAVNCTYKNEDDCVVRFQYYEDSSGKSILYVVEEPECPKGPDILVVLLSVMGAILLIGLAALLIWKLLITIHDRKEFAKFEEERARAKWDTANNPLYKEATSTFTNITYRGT
Protocol: Receptors were purified according to the procedures of Pytela et al. (Methods Enzymol. 144:475 (1987)), incorporated herein by reference. […] After extraction, the suspension was filtered over a Sepharose 6B column and then applied to a GRGDSPK column. Except where stated, all procedures were carried out at 4° C. The peptide column was washed with three volumes of Tris-buffered saline (TBS) containing 1 mM Ca^2+ and 25 mM OG and then with TBS containing 1 mM Ca^2+ and 25 mM octyl thioglucoside (OTG) at room temperature. […] Finally, Ca^2+ and Mg^+2 were added to eluted fractions to achieve final concentrations of 1 mM for both ions.
This assay was performed with minor modifications, according to the method of Pytela et al., Methods Enzymol. 144:475 (1987), incorporated herein by reference. […] An aliquot of the dialyzed sample was counted to assess radioactive content; the receptor-liposome mixture was then diluted to obtain a set radioactivity per unit volume. […]
(§1) In parallel studies with the platelet aggregation experiments (described in Example V), the apparent affinities of peptides for GP IIb/IIIa, fibronectin and vitronectin receptors were determined. […]
(§2) IC50 s for FnR were determined by ELISA (Example III). Those for VnR and GP IIb/IIIa were determined by liposome attachment assay (Example IV). […]

[4] = target: GP IIb/IIIa (Homo sapiens, UniProt P05106+P08514); assay: Liposome attachment assay for GP IIb/IIIa; conditions: read-out: IIb/IIIa Binding (IC50)
GP IIb/IIIa, sequence (P08514 32-887 limits assumed): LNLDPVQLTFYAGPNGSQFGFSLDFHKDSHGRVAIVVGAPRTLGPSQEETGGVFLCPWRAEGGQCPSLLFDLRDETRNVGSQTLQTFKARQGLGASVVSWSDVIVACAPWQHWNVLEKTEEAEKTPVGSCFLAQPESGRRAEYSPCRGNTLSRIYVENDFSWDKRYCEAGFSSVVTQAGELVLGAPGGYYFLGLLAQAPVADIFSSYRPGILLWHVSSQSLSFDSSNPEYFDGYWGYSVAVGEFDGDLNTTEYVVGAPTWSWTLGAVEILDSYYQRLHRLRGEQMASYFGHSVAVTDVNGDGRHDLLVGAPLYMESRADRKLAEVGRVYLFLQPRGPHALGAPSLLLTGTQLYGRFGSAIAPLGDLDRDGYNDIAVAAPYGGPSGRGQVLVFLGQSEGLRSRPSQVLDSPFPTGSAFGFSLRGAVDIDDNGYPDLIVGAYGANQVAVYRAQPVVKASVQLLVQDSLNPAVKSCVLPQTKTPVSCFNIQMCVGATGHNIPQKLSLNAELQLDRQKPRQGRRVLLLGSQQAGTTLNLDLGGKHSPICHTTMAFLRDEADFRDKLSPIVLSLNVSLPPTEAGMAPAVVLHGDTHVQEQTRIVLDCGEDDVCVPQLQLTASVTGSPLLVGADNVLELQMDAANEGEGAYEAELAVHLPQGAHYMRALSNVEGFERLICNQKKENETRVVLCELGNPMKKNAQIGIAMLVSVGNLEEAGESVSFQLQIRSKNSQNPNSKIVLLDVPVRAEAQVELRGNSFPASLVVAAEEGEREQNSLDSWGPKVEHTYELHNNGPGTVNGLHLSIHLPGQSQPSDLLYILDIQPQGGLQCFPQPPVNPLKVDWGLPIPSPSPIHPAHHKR
GP IIb/IIIa, sequence (P08514 891-1039 partner limits assumed): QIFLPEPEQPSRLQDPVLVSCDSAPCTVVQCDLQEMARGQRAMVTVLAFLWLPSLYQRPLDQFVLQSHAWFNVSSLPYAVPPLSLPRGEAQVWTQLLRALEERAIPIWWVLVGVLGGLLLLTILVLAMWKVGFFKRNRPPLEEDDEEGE
GP IIb/IIIa, sequence (P05106 27-788): as the sequence (P05106 27-788) above
Protocol: This assay was performed with minor modifications, according to the method of Pytela et al., Methods Enzymol. 144:475 (1987), incorporated herein by reference. Briefly, 1:4 mixture of labelled and unlabelled phosphatidylcholine (PC) liposomes was dissolved under nitrogen and diluted with an equal volume of purified receptor (purified as described in Example II) to achieve a fixed predetermined receptor-liposome concentration ratio. This mixture was then dialyzed overnight at 4° C. in phosphate buffered saline (PBS) containing 1 mM Ca^2+. An aliquot of the dialyzed sample was counted to assess radioactive content; the receptor-liposome mixture was then diluted to obtain a set radioactivity per unit volume.
Microtiter plates were coated with 10 μg of vitronectin. Non-specific sites were blocked for 2 hours at 37° C. in PBS containing 5 mg/ml BSA and 1 mM each of CaCl2 and MgCl2. The plates were then rinsed twice with PBS containing 1 mM Ca^+2 and Mg^+2, and 100 μl of the liposome-receptor mixture was added to each well. […]
as §1, §2

[5] = tested on: coronary thrombosis; assay: Electrically induced canine coronary thrombosis, time to full occlusion; format: in vivo, dog
Protocol: Male mongrel dogs weighing 14 to 20 kg were selected based on proper aggregation of their platelets in response to arachidonic acid, collagen, and adenosine disphosphate (ADP) and based on similar weights and hemodynamic properties.
Before surgery, the animals were anesthetized with sodium pentobarbital (30 mg/kg, i.v.) and then intubated and ventilated on room air with positive pressure using a respirator (Harvard Apparatus, S. Natick, Mass.) at a volume of 30 ml/kg and a frequency of 12 breaths/min. Surgery, performed under aseptic conditions, was begun with the placement of cannulae into the left carotid artery and jugular vein for monitoring arterial blood pressure (Statham P23 pressure transducer, Gould, Inc., Cardiovascular Products, Oxnard, Calif.) and administering intravenous fluids.
The heart was exposed via a left thoracotomy through the 5th intercostal space. A 2-cm segment of the left circumflex coronary artery (LCCA) was isolated from surrounding tissue by blunt dissection. […] The intra-coronary electrode was constructed by attaching a 25-gauge hypodermic needle tip to a 30-gauge Teflon-insulated silver-coated copper wire. The mechanical occluder was constructed of stainless steel in a C shape with a Teflon screw (2 mm diameter) on top. It was adjusted to control vessel circumference and decrease the reactive hyperemic flow due to a 10-sec (full) occlusion by 50-70% without affecting basal coronary blood flow (FIG. 1). A monopolar epicardial electrode was sutured to the surface of the ventricle in the region of LCCA distribution to monitor ischemic changes in the electrocardiogram (ECG). The left atrium was cannulated with polythylene tubing for administration of the peptide. Continuous recordings of blood pressure, limb lead II ECG, epicardial electrogram, and mean and phasic LCCA blood flow were obtained on a Model 7 polygraph (Grass Instrument Co., Quincy, Mass.).
One hour after the completion of surgery, a 100 micro-amp continuous anodal direct current delivered from a 9 volt nickel-cadmium battery was applied to the intimal surface of the LCCA. The anode of the battery was in series with a 250,000 ohm potentiometer and the intraluminal coronary artery electrode. The electric circuit was completed by placing the cathode in a subcutaneous site. Electrical stimulation was applied for three hours. At the conclusion of each experiment, the heart was fibrillated electrically and quickly removed, and the LCCA was dissected free as far as possible to verify the position of the implanted anodal electrode.
(§3) Animals were randomly assigned to two treatment groups: vehicle control (i.e., normal saline) or RGD peptides at various concentrations. Peptides were administered intra-atrially in both bolus and continuous injections. Each bolus injection consisted of 5 or 10 mg/kg and was administered 15 minutes before application of the current. A continuous infusion of the same peptide was then started immediately after completion of this initial injection. Animals that received a 5 mg/kg bolus also received a 5 mg/kg/hr infusion, whereas animals that received a 10 mg/kg bolus also received a 10 mg/kg/hr infusion. The anti-thrombotic effects of the peptides were monitored until 30 minutes after the occurrence of a persistent, occlusive thrombus or five hours after the initiation of electrical stimulation (whichever resulted first). If an occlusive thrombus had not developed within four hours after the initiation of current, the peptide infusion was stopped.
Coronary thrombosis was quantified as the time to full occlusion. The effects of the various peptide treatments on coronary thrombosis is illustrated in FIG. 4.

[6] = tested on: platelets; assay: Ex vivo ADP-stimulated platelet aggregation in baboon PRP; conditions: animal 2; ADP 10 μm; 0, 1 and 2 hours
Protocol: At one- and two-hour time points, template bleeding times were measured, and blood samples were drawn to assess the hematology aggregation studies. Platelet aggregation studies were performed as described in Example V using ADP as the stimulus.
In addition, platelet aggregation studies were conducted on PRP derived from the second animal. Whole blood was drawn at three time points (0, 1 and 2 hours) of both control and experimental shunts.

[7] = tested on: platelets; assay: Ex vivo platelet aggregation after peptide injection in the canine coronary thrombosis model; design: species or system dog; conditions: for reduction of ex vivo aggregation relative to control levels: 3 mg/kg
Protocol: For all ex vivo studies (see FIG. 3), control aggregation values were standardized to the percentages of light transmission observed in PRP and PPP samples (0% and 100%, respectively).
as §3, with “Each bolus injection consisted of 5 or 10 mg/kg and was administered 15 minutes before application of the current.” left out
Platelet counts and ex vivo aggregation studies were performed one hour before and 1, 3, and 5 hours after application of anodal direct current.
Platelet aggregation was also determined ex vivo at one, three, and five hours after current application. For these studies, arachidonic acid, or collagen was again used to stimulate the platelets.

[8] = 10 mg/kg bolus + 10 mg/kg/hr, intra-atrial
[9] = 10 mg/kg, all three time points

## (t-but-am-Pam-Pmp)GHRGDLRPenA
[1]
  IC50: 89 µM

## FRGDSPDG
[2]
  IC50: 0.12 µM

## GHRGDLRDASG
[3]
  IC50: 36.8 µM

## GPGRGDSPCA
[4]
  IC50: 20 µM

## GPenGHRGDLRCA
[5]; [8]
  time to full occlusion (coronary thrombosis): did not significantly influence
[6]
  ex vivo platelet responsiveness to ADP: completely unresponsive
[7]; 10 mg/kg, 1, 3 and 5 h
  inhibition of ADP-stimulated ex vivo aggregation: substantially inhibited
[7]; [9]
  inhibition of AA-stimulated ex vivo aggregation relative to control levels: 43-70%
  inhibition of collagen-stimulated ex vivo aggregation relative to control levels: 12-50%

## GRGDSPDG
[2]
  IC50: 0.005 µM

## RPenGHRGDWRCR
[5]; 5 mg/kg
  thrombus formation in animals whose circulating platelet levels were one-third of normal: able to prevent thrombus formation
[5]; 5 mg/kg bolus + 5 mg/kg/hr, intra-atrial
  time to full occlusion (coronary thrombosis): significantly prolonged
[5]; [8]
  time to full occlusion (coronary thrombosis): completely prevented occlusion
[7]; 5 mg/kg
  blockade of all ex vivo aggregation responses: completely or near-maximally blocked
  inhibition of ex vivo platelet activation by collagen: near-maximal inhibition
[7]; 5 mg/kg, all three time points
  platelet responsiveness ex vivo to ADP and AA: completely unresponsive

## RPenGRGDWPCR
[5]; 3 mg/kg
  time to full occlusion (coronary thrombosis): ineffective
[5]; [8]
  time to full occlusion (coronary thrombosis): prevented occlusion
[7]; one hour
  reduction of ex vivo aggregation relative to control levels: 20-58%
[7]; three and five hours, listed as 4R
  reduction of ex vivo aggregation relative to control levels: 75-100% and 72-100%
[7]; 10 mg/kg, all time points
  ex vivo platelet responsiveness to all modes of stimulation: unresponsive
